Experimental data from US20110311657A1, “Use of a Neuroprotective Extract and Pharmaceutical Preparation Thereof” (Universiti Putra Malaysia, priority 2009, published 2011).

How the values were obtained:
Format in all cases: in vivo, rat
[1] = system: hippocampal CA3 pyramidal cells; test: Neuron viability in hippocampal CA3 of normal and nitric oxide (NO) deficient rats; conditions: nitric oxide (NO) deficient rats, 12-week L-NAME administration; FIG. 1b
Description: Neuroprotective activities of polyphenol-rich palm leaves extract and captopril were evaluated in normal and nitric oxide (NO) deficient rats by assessing neuron viability of three subfields in the hippocampus; CA1. CA3 and DG. […] No significant difference in viability was observed between all 3 groups of normal rats. […] CA3 and DG of the hippocampus, and that co-administration with palm leaves extract attenuated this effect more effectively than with captopril. The pronounced loss of neurons with L-NAME administration caused the impairment in acquisition, but not retention, of spatial memory in the radial-arm maze task and the Morris water maze task. The neuroprotective effect of palm leaves extract was not significant in normal adult rats where loss of neurons have not occurred.

[2] = system: hippocampal CA1 pyramidal cells; test: Neuron viability in hippocampal CA1 of normal and nitric oxide (NO) deficient rats; conditions: for viable pyramidal cells in CA1: nitric oxide (NO) deficient rats, 12-week L-NAME administration, FIG. 1a
Description: (§1) Neuroprotective activities of polyphenol-rich palm leaves extract and captopril were evaluated in normal and nitric oxide (NO) deficient rats by assessing neuron viability of three subfields in the hippocampus; CA1. CA3 and DG. […] CA3 and DG of the hippocampus, and that co-administration with palm leaves extract attenuated this effect more effectively than with captopril. The pronounced loss of neurons with L-NAME administration caused the impairment in acquisition, but not retention, of spatial memory in the radial-arm maze task and the Morris water maze task. The neuroprotective effect of palm leaves extract was not significant in normal adult rats where loss of neurons have not occurred.

[3] = system: brain superoxide dismutase (SOD); test: Brain superoxide dismutase (SOD) activities in normal and NO deficient rats
[4] = system: brain catalase; test: Brain catalase in normal and NO deficient rats; conditions: normal rats, FIG. 2c
[5] = system: brain malondialdehyde (MDA); test: Brain malondialdehyde (MDA) concentrations in normal and NO deficient rats; conditions: normal rats, FIG. 2d
[6] = system: hippocampal dentate gyrus (DG) granule cells; test: Neuron viability in hippocampal dentate gyrus of normal and nitric oxide (NO) deficient rats; conditions: nitric oxide (NO) deficient rats, 12-week L-NAME administration; FIG. 1c
Description: as §1, with “DG. […] The viability values of all 3 normal groups were similar.” for “DG.”

Structure (SMILES): COC(=O)[C@@H](N)CCCNC(=N)N[N+](=O)[O-] [L-NAME]
- CA3 pyramidal cells viability [1]: 15%
- viable pyramidal cells in CA1 [2]: 40%
- superoxide dismutase (SOD) activity ([3]; L-NAME administration alone, FIG. 2a): decreased

Structure (SMILES): C[C@H](CS)C(=O)N1CCC[C@H]1C(=O)O [captopril]
- catalase activity compared to control [4]: depleted significantly
- CA3 pyramidal cells viability [1]: 35%
- viable pyramidal cells in CA1 [2]: partial neuroprotection
- viable pyramidal cell count in CA1 compared to control ([2]; normal rats): no significant change
- increase of superoxide dismutase (SOD) activities compared with L-NAME treated animals ([3]; nitric oxide (NO) deficient rats, FIG. 2a): 51%
- superoxide dismutase (SOD) activity ([3]; normal rats): maintaining
- malondialdehyde (MDA) level [5]: maintaining
- viable granule cells in dentate gyrus (DG) / neurons protected from degeneration [6]: 34%
